As a reminder, the EC50 is the concentration needed to bring the measured effect to its halfway point.

Consider 1 compound from PubChem BioAssay AID493043 (Johns Hopkins Ion Channel Center, 2011).

For the assay, the target named is Potassium voltage-gated channel subfamily KQT member 4 (Homo sapiens) (UniProt P56696). Put plainly: activation of KCNQ4 potassium current – automated patch clamp, CHO cells, selectivity assay for KCNQ2 activator project, dose response (AID 493043). Conditions: automated patch clamp current potentiation.
Sequence of Potassium voltage-gated channel subfamily KQT member 4 (Homo sapiens) (P56696 whole entry, looked up): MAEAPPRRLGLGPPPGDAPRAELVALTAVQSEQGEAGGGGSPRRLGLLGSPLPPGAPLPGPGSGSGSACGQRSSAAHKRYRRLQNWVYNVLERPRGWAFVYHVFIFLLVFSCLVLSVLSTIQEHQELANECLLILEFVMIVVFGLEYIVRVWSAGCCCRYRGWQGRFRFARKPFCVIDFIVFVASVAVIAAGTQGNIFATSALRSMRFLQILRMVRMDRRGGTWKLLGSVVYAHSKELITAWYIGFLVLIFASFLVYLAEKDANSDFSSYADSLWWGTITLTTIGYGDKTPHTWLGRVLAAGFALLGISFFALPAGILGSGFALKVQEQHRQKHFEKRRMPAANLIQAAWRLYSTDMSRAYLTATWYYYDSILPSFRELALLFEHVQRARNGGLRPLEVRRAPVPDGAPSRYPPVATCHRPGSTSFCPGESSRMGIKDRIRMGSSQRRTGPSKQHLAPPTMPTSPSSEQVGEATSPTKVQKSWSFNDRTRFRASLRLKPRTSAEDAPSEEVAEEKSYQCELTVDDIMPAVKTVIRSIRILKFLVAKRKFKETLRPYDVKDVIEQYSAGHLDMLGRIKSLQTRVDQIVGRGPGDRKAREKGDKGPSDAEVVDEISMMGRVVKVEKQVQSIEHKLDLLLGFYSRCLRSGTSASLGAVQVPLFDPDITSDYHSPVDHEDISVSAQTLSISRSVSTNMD

Turning to `Cc1cc(C)c(NC(=O)C2CC3CCC2C3)c(C)c1` (stereo unspecified), the EC50 is 513 nM.
